The test system of experiment [1] is MRSA clinical isolate OU6. The experiment in a line: Clinical laboratory susceptibility (MicroScan), MRSA isolate 6. The experiment is classed as cell-based, S. aureus. As to conditions: MicroScan PC33 gram positive panel.
Experiment [2] concerns MRSA clinical isolate OU11. The experiment in a line: Clinical laboratory susceptibility (MicroScan), MRSA isolate 11. The experiment is classed as cell-based, S. aureus. The settings on record: MicroScan PC33 gram positive panel.
For experiment [3], the system named is clinical isolates OU15, OU19, and OU22. The experiment in a line: Checkerboard assay, isolates OU15, OU19 and OU22 reported together. The experiment is classed as cell-based, Pseudomonas aeruginosa. As to conditions: for MIC: Pseudomonas aeruginosa; for interaction with BPEI600: isolates OU15, OU19, OU22 (data not shown). Here is the method: (§1) Cells were grown at 35° C. with shaking. The OD600 (optical density at 600 nm) was monitored and recorded for each sample over 24 hr. Each checkerboard trial was done in triplicate using sterile Greiner CellStar™ flat bottom polystyrene plates, catalog #655180. Each growth curve was done in duplicate.

Experiment [4] deals with MRSA USA 300 ATCC 1717. The experiment can be described thus: Checkerboard MIC assay against MRSA USA300 (Example 1). It counts as cell-based, Staphylococcus aureus. As to conditions: MRSA USA300; for MIC: Staphylococcus aureus, agent alone, read-out: MIC of antibiotic only.
Experiment [5] relates to MRSA 43300 biofilms. The experiment in a line: MBEC assay (MICCP and MBEC), MRSA 43300. It counts as cell-based, Staphylococcus aureus. Here is the method: (§2) Bacterial culture was inoculated in an MBEC pronged-inoculator and incubated for 24 hr to allow biofilm formation. […] The change in optical density at 600 nm (Δ OD600) was measured. Minimum inhibitory concentration (MIC) of each drug is determined as the lowest concentration that inhibited cell growth (ΔOD600<0.05). Fractional inhibitory concentration index (FICI) was calculated as: […]
(§3) Synergistic effects are determined using EUCAST guidelines: synergy (FICI≤0.5), additivity (0.5<FICI<1), and indifference (FICI>1). The treated pronged-inoculator was then washed and transferred to a recovery plate with 200 μL MHB/well to sonicate and recover any remaining biofilm bacteria. The recovery plate was then incubated overnight before measuring ΔOD600 to determine MBECs and FICIs of the drugs tested on the biofilms.
(§4) MBEC assays were utilized on MRSA OU6 and MRSA OU11 and a lab strain MRSA ATCC 43300. The MRSA bacteria were used to inoculate a 96-well inoculation plate, where MRSA biofilms were grown on prongs protruding from the plate lid, known as the MBEC inoculator lid and based on the Calgary biofilm device. […] The final step was moving the treated inoculation lid to a third plate (the recovery plate) containing growth-media only and using sonication to dislodge the biofilm and recover cells remaining in the biofilm. In this manner, the synergy of BPEI and ampicillin against MRSA biofilms was evaluated. Standard CLSI (Clinical & Laboratory Standards Institute) guidelines describe a standard MIC assay using 96-well plates inoculated with a standard cell density, usually ˜10^6 CFU/mL. However, the MIC data reported here is non-standard because, rather than inoculation via micropipette transfer from an overnight culture, inoculation of the challenge plate occurs from the biofilm-coated inoculation lid where treatment challenge disrupts the protective biofilm EPS matrix. […] The MBEC is determined from cell growth in the recovery plate and reflects the ability of BPEI600, ampicillin, or its combinations to kill the biofilm remaining attached to the prongs of the inoculation lid. […]

Experiment [6] concerns MRSA OU6 biofilms. The experiment in a line: MBEC assay (MICCP and MBEC), MRSA OU6. It counts as cell-based, Staphylococcus aureus. How it is done: as §2, §3, §4
In experiment [7] the test system is MRSA OU11 biofilms. The experiment in a line: MBEC assay (MICCP and MBEC), MRSA OU11. The experiment is classed as cell-based, Staphylococcus aureus. Here is the method: as §2, §3, §4
For experiment [8], the system named is PA OU15. The experiment can be described thus: Checkerboard assay, PA OU15. The experiment is classed as cell-based, Pseudomonas aeruginosa. The settings on record: Pseudomonas aeruginosa, PA OU15. How it is done:
as §1

Experiment [9] deals with PA OU19. The experiment in a line: Checkerboard assay, PA OU19. It counts as cell-based, Pseudomonas aeruginosa. As to conditions: Pseudomonas aeruginosa, PA OU19. Here is the method:
as §1

Experiment [10] concerns PA OU22. The experiment can be described thus: Checkerboard assay, PA OU22. It counts as cell-based, Pseudomonas aeruginosa. As to conditions: Pseudomonas aeruginosa, PA OU22. How it is done: as §1
Experiment [11] deals with S. epidermidis ATCC 35984 (MRSE 35984). The experiment can be described thus: MIC/potentiation against MRSE 35984 (Example 1). It counts as cell-based, Staphylococcus epidermidis. As to conditions: for MIC of antibiotic only: agent alone.
Experiment [12] concerns S. epidermidis ATCC 12228 (MSSE 12228). The experiment in a line: MIC/potentiation against MSSE 12228. The experiment is classed as cell-based, Staphylococcus epidermidis. As to conditions: for MIC of antibiotic only: agent alone.
Where [13] appears, read: read-out: cefepime MIC with 16 μg/mL of BPEI600.

Values after ≈ are worked out from the molar mass of the structure shown. Read-outs that look alike come from different tables or passages of the source.

`CCC[C@@H]1C[C@@H](C(=O)N[C@@H]([C@H]2O[C@H](SC)[C@H](O)[C@@H](O)[C@H]2O)[C@H](C)Cl)N(C)C1` [Clindamycn]: the MIC in experiment [1] and in [2] was more than 4 µg/mL each time.

`CCCCCCCCCC(=O)N[C@@H](Cc1c[nH]c2ccccc12)C(=O)N[C@H](CC(N)=O)C(=O)N[C@@H](CC(=O)O)C(=O)N[C@@H]1C(=O)NCC(=O)N[C@@H](CCCN)C(=O)N[C@@H](CC(=O)O)C(=O)N[C@H](C)C(=O)N[C@@H](CC(=O)O)C(=O)NCC(=O)N[C@H](CO)C(=O)N[C@@H]([C@H](C)CC(=O)O)C(=O)N[C@@H](CC(=O)c2ccccc2N)C(=O)O[C@@H]1C` [Daptomycin]: the MIC in [1] and in [2] was not above 0.5 µg/mL in each case.

For the molecule `CC[C@H]1OC(=O)[C@H](C)[C@@H](O[C@H]2C[C@@](C)(OC)[C@@H](O)[C@H](C)O2)[C@H](C)[C@@H](O[C@@H]2O[C@H](C)C[C@H](N(C)C)[C@H]2O)[C@](C)(O)C[C@@H](C)C(=O)[C@H](C)[C@@H](O)[C@]1(C)O` [Erythromycin], the MIC in experiment [3] is 256 µg/mL; in [3] (read-out: erythromycin MIC in the presence of 16 μg/mL of BPEI600) it was 64 µg/mL; in experiment [1], more than 4 µg/mL; in experiment [2], more than 4 µg/mL. Moreover, in experiment [3] (data not shown), the “factor of reduction of erythromycin MIC by BPEI600” value is listed as 4. Besides, the “interaction with BPEI600” value in [3] is listed as “exhibited synergy”.

Consider `CN(C)[C@@H]1C(O)=C(C(N)=O)C(=O)[C@@]2(O)C(O)=C3C(=O)c4c(O)cccc4[C@@](C)(O)[C@H]3C[C@@H]12` [Tetracycline], for which the MIC in [1] and in experiment [2] was not above 4 µg/mL throughout.

As for `CC1(C)S[C@@H]2[C@H](NC(=O)[C@H](N)c3ccc(O)cc3)C(=O)N2[C@H]1C(=O)O` [amoxicillin], in experiment [4], the “MIC with 4 μg/ml (6.75 μM) 600-Da BPEI” value is 1 µg/mL and the MIC came out at 4 µg/mL.

On to `CC1(C)S[C@@H]2[C@H](NC(=O)[C@H](N)c3ccccc3)C(=O)N2[C@H]1C(=O)O` [ampicillin], for which the MICCP in experiment [5] (MRSA 43300, challenge plate, agent alone) was 128 µg/mL; in experiment [6] (MRSA OU6, challenge plate, agent alone), 256 µg/mL; in [7] (MRSA OU11, challenge plate, agent alone) it was 128 µg/mL. The “Ampicillin MBEC + 64 μg/mL BPEI” value in experiment [5] (MRSA 43300 biofilm) amounted to 2 µg/mL; in [6] (MRSA OU6 biofilm) it was 64 µg/mL; in [7] (MRSA OU11 biofilm) it was 32 µg/mL. For the same molecule, the MBEC is more than 256 µg/mL in [5] (MRSA 43300 biofilm, agent alone); more than 256 µg/mL in experiment [6] (MRSA OU6 biofilm, agent alone); more than 256 µg/mL in experiment [7] (MRSA OU11 biofilm, agent alone).

As for `CO/N=C(\C(=O)N[C@@H]1C(=O)N2C(C(=O)[O-])=C(C[N+]3(C)CCCC3)CS[C@H]12)c1csc(N)n1` [cefepime], the MIC in [8] (setting [13]) amounted to 0.5 µg/mL; in [8] (agent alone, read-out: MIC), 32 µg/mL; in experiment [9] (setting [13]), 8 µg/mL; in experiment [9] (agent alone, read-out: MIC), 64 µg/mL; in experiment [4], 4 µg/mL; in experiment [10] (setting [13]), 8 µg/mL. In addition, the MIC in experiment [10] (agent alone, read-out: MIC) was 128 µg/mL. Also, the “MIC with 4 μg/ml (6.75 μM) 600-Da BPEI” value in experiment [4] came to 1 µg/mL.

Turning to `CO/N=C(\C(=O)N[C@@H]1C(=O)N2C(C(=O)O)=CCS[C@H]12)c1csc(N)n1` [ceftizoxime], in [4], the “MIC, antibiotic + 32 μg/ml (20 μM) PEG1000BPEI600” value was 8 µg/mL; the “MIC, antibiotic + 64 μg/ml (40 μM) PEG1000BPEI600” value was found to be 0.5 µg/mL; the MIC is 128 µg/mL.

Turning to `CC1=C(C(=O)O)N2C(=O)[C@@H](NC(=O)[C@H](N)c3ccccc3)[C@H]2SC1` [cephalexin], in experiment [4], the “MIC with 4 μg/ml (6.75 μM) 600-Da BPEI” value was found to be 0.5 µg/mL and the MIC was determined as 2 µg/mL.

Take `C[C@@H](O)[C@H]1C(=O)N2C(C(=O)O)=C(SCCN=CN)C[C@H]12` [imipenem]: in [4], the “MIC with 4 μg/ml (6.75 μM) 600-Da BPEI” value turned out to be 0.03 µg/mL and the MIC turned out to be 4 µg/mL.

`CC(=O)NC[C@H]1CN(c2ccc(N3CCOCC3)c(F)c2)C(=O)O1` [linezolid]: in experiment [11], the “MIC, antibiotic + 2 μg/ml (3.375 μM) 600-Da BPEI” value (shortened to “MIC, antibiotic + 2 μg/ml”) was found to be 0.5 µg/mL; the “MIC, antibiotic + 4 μg/ml (6.75 μM) 600-Da BPEI” value (“MIC, antibiotic + 4 μg/ml” for short) came to 0.25 µg/mL; the “MIC of antibiotic only” value stood at 1 µg/mL. For the same molecule, the MIC in experiment [1] amounted to 2 µg/mL (≈ 5.93 µM). Besides, in [12], the “MIC, antibiotic + 2 μg/ml” value came to 0.25 µg/mL; the “MIC, antibiotic + 4 μg/ml” value came to 0.25 µg/mL; the “MIC of antibiotic only” value came to 0.25 µg/mL. Further, in experiment [4], the “MIC with 4 μg/ml (6.75 μM) 600-Da BPEI” value worked out at 0.5 µg/mL and the MIC came to 0.5 µg/mL. In addition, in [2], the MIC amounted to 2 µg/mL (≈ 5.93 µM).

Turning to `C[C@@H](O)[C@H]1C(=O)N2C(C(=O)O)=C(S[C@@H]3CN[C@H](C(=O)N(C)C)C3)[C@H](C)[C@H]12` [meropenem], in [3] (isolates OU15, OU19, OU22, agent alone (data not shown), read-out: MIC), the MIC is 16 to 64 µg/mL. In experiment [3], the “interaction with BPEI600” value is reported as “no synergy (no synergy (FICI≥1))”.

`CN[C@H](CC(C)C)C(=O)N[C@H]1C(=O)N[C@@H](CC(N)=O)C(=O)N[C@H]2C(=O)N[C@H]3C(=O)N[C@H](C(=O)N[C@H](C(=O)O)c4cc(O)cc(O)c4-c4cc3ccc4O)[C@H](O)c3ccc(c(Cl)c3)Oc3cc2cc(c3O[C@@H]2O[C@H](CO)[C@@H](O)[C@H](O)[C@H]2O[C@H]2C[C@](C)(N)[C@H](O)[C@H](C)O2)Oc2ccc(cc2Cl)[C@H]1O` [vancomycin]: the “MIC, antibiotic + 2 μg/ml” value stood at 2 µg/mL in [11] and 1 µg/mL in [12]. Also, the “MIC, antibiotic + 4 μg/ml” value was 0.5 µg/mL in experiment [11] and 1 µg/mL in experiment [12]. The results for the “MIC of antibiotic only” value in experiment [11] and in experiment [12] were 2 µg/mL and 1 µg/mL, respectively. Moreover, the MIC in experiment [1] was 2 µg/mL (≈ 1.38 µM); in experiment [2], 1 µg/mL (≈ 0.69 µM).

As to Gentamicin, the MIC in [1] and in experiment [2] was not above 4 µg/mL throughout.

The values above are taken from patent US20210260101A1, “POTENTIATED ANTIBIOTIC COMPOSITIONS AND METHODS OF USE FOR TREATING BACTERIAL INFECTIONS AND BIOFILMS” (priority 2018, published 2021).
